Reference: the supplement of paper PMC10307832

How the values were obtained:
Assay in all cases: relative viability (nuclei count vs DMSO), 5 days (fraction); higher = more cells survive
[1] = compound: C1CN(CCC1C(C2=CC3=C(C=C2)OCO3)(C4=CC5=C(C=C4)OCO5)O)C(=O)OC6=CC=C(C=C6)[N+](=O)[O-] [JZL-184] + CC(=O)c1c(C)c2cnc(Nc3ccc(N4CCNCC4)cn3)nc2n(C2CCCC2)c1=O [Palbociclib] (partner 0.5 µM)
In short: (§1)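 Relative viability equals treated-well nuclei counts divided by vehicle-well nuclei counts. Counts came from 4× images of lung cancer cell lines grown in 1536-well plates for 5 days after pin-tool dosing on the day after seeding. Dosing used one drug alone or a fixed anchor-drug dose plus five library-drug doses (not always all listed) in √10 steps, and values are medians of duplicate plates.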

[2] = compound: C1CN(CCC1C(C2=CC3=C(C=C2)OCO3)(C4=CC5=C(C=C4)OCO5)O)C(=O)OC6=CC=C(C=C6)[N+](=O)[O-] [JZL-184] + Nc1nc2[nH]cc(CCc3ccc(C(=O)N[C@@H](CCC(=O)O)C(=O)O)cc3)c2c(=O)[nH]1 [Pemetrexed] (partner 0.2 µM)
In short: as §1

[3] = compound: C1CN(CCC1C(C2=CC3=C(C=C2)OCO3)(C4=CC5=C(C=C4)OCO5)O)C(=O)OC6=CC=C(C=C6)[N+](=O)[O-] [JZL-184] + CC(C)C[C@H](NC(=O)[C@H](Cc1ccccc1)NC(=O)c1cnccn1)B(O)O [Bortezomib] (partner 0.002 µM)
In short: as §1

[4] = compound: C1CN(CCC1C(C2=CC3=C(C=C2)OCO3)(C4=CC5=C(C=C4)OCO5)O)C(=O)OC6=CC=C(C=C6)[N+](=O)[O-] [JZL-184] + COc1cccc2cc(-c3nc([C@H]4CC[C@H](C(=O)O)CC4)n4ncnc(N)c34)[nH]c12 [OSI-027] (partner 0.5 µM)
In short: as §1

[5] = compound: C1CN(CCC1C(C2=CC3=C(C=C2)OCO3)(C4=CC5=C(C=C4)OCO5)O)C(=O)OC6=CC=C(C=C6)[N+](=O)[O-] [JZL-184] + Cc1cc(Nc2cc(N3CCN(C)CC3)nc(Sc3ccc(NC(=O)C4CC4)cc3)n2)n[nH]1 [Tozasertib] (partner 0.1 µM)
In short: as §1

Cell Line	relative viability ([1]; first compound 0.04 µM)	relative viability ([1]; first compound 0.4 µM)	relative viability ([1]; first compound 1.265 µM)	relative viability ([1]; first compound 4 µM)	relative viability ([2]; first compound 0.04 µM)	relative viability ([2]; first compound 0.4 µM)	relative viability ([2]; first compound 1.265 µM)	relative viability ([2]; first compound 4 µM)	relative viability ([3]; first compound 0.04 µM)	relative viability ([3]; first compound 0.4 µM)	relative viability ([3]; first compound 1.265 µM)	relative viability ([3]; first compound 4 µM)	relative viability ([4]; first compound 0.04 µM)	relative viability ([4]; first compound 0.4 µM)	relative viability ([4]; first compound 1.265 µM)	relative viability ([4]; first compound 4 µM)	relative viability ([5]; first compound 0.04 µM)	relative viability ([5]; first compound 0.4 µM)	relative viability ([5]; first compound 1.265 µM)	relative viability ([5]; first compound 4 µM)
SK-LU-1	0.387	0.393	0.433	0.405	1.04	0.887	1	0.881	0.929	1.06	1.29	1.16	0.405	0.341	0.423	0.358	0.372	0.328	0.329	0.338
COR-L 105	0.464	0.376	0.371	0.409	1.23	1.07	1.18	1.09	0.922	0.742	0.837	0.759	0.908	0.731	0.744	0.703	0.381	0.398	0.381	0.319
LOU-NH91	0.524	0.509	0.558	0.448	0.389	0.334	0.381	0.394	0.51	0.419	0.511	0.471	0.742	0.684	0.788	0.712	0.806	0.727	0.798	0.629
NCI-H661	0.408	0.378	0.399	0.403	0.983	0.858	0.931	0.898	0.763	0.803	0.796	0.889	0.806	0.638	0.761	0.53	0.364	0.354	0.337	0.325
LU99A	0.455	0.36	0.471	0.42	0.162	0.12	0.159	0.124	1.29	1.09	1.32	1.22	0.327	0.293	0.269	0.284	0.283	0.299	0.317	0.285
NCI-H1650	0.395	0.368	0.408	0.302	0.341	0.391	0.366	0.354	0.192	0.179	0.228	0.198	0.674	0.504	0.837	0.608	0.417	0.325	0.432	0.257
SW 1573	0.458	0.328	0.45	0.383	1.11	0.842	0.915	0.876	1.14	0.935	1.08	0.976	0.733	0.548	0.591	0.525	0.175	0.143	0.229	0.176
HOP-62	0.481	0.374	0.453	0.455	0.331	0.312	0.306	0.309	1.09	0.862	0.809	0.856	0.981	0.805	0.826	0.866	0.356	0.402	0.366	0.335
UMC-11	0.327	0.339	0.366	0.35	0.916	0.755	0.876	0.79	0.79	0.723	0.571	0.673	0.612	0.461	0.499	0.457	0.177	0.21	0.206	0.196
LCLC-103H	0.438	0.213	0.502	0.511	0.495	0.481	0.453	0.477	0.992	1.08	0.985	1.02	0.525	0.528	0.428	0.455	0.488	0.521	0.521	0.529
NCI-H1734	0.394	0.293	0.37	0.292	0.462	0.426	0.419	0.42	1.03	0.842	1.02	0.884	0.621	0.615	0.718	0.594	0.265	0.231	0.255	0.247
EKVX	0.436	0.331	0.323	0.371	0.364	0.326	0.352	0.403	1.12	0.905	1.04	0.967	0.752	0.536	0.669	0.704	0.39	0.408	0.423	0.351
HARA	0.25	0.204	0.273	0.238	0.289		0.268	0.254	1.11	0.967	1.17	1.09	0.547	0.444	0.614	0.456	0.134	0.0806	0.107	0.108
EMC-BAC-2	0.584	0.458	0.508	0.512	0.452	0.423	0.454	0.473	1.2	1.02	1.16	1.07	0.368	0.375	0.396	0.343	0.296	0.282	0.285	0.287
PC-14	0.659	0.49	0.517	0.519	0.126	0.128	0.15	0.114	0.808	0.972	0.781	0.77	1.07	0.831	0.853	0.72	0.647	0.623	0.631	0.485
NCI-H520	0.189	0.221	0.223	0.219	0.782	0.483	0.748	0.684	0.648	0.479	0.582	0.531	0.233	0.229	0.257	0.213	0.424	0.407	0.581	0.413
NCI-H1755	0.44	0.451	0.473	0.452	0.432	0.367	0.475	0.484	1.13	0.895	0.933	0.859	0.672	0.699	0.709	0.745	0.545	0.575	0.601	0.453
NCI-H2087	0.231	0.215	0.259	0.227	0.667	0.663	0.631	0.636	0.901	0.811	0.845	0.771	0.519	0.514	0.579	0.436	0.23	0.229	0.268	0.244
NCI-H2023	0.56	0.354	0.393	0.249	0.281	0.167	0.258	0.227	1.03	0.947	1.01	0.865	0.407	0.381	0.405	0.317	0.356	0.318	0.345	0.296
CAL-12T	0.692	0.314	0.508	0.576	1.4	0.997	1.22	1.08	1.15	0.942	1.18	1.08	0.897	0.648	0.673	0.614	0.336	0.269	0.336	0.228
NCI-H2085		0.489	0.44	0.469		0.817	0.948	0.882	0.914	1.06	1.04	0.91	0.444	0.592	0.795	0.649		0.812	0.845	0.753
NCI-H650	0.358	0.292	0.321	0.317	0.894	0.924	1.04	1.01	0.912	0.801	1.04	0.738	0.603	0.525	0.576	0.542	0.84	0.731	0.848	0.761
LCLC-97TM1	0.283	0.195	0.255	0.274	0.166	0.17	0.13	0.201	0.612	0.624	0.804	0.573	0.493	0.393	0.504	0.559	0.41	0.177	0.242	0.242
NCI-H2126	0.329	0.357	0.359	0.345	0.663	0.66	0.726	0.705	1.13	1.09	1.09	1.15	0.636	0.64	0.804	0.683	0.89	0.749	0.883	0.767
201T	0.383	0.339	0.373	0.344	0.355	0.351	0.348	0.293	1.14	1.04	1.07	1.07	0.754	0.685	0.744	0.701	1.02	0.981	0.988	0.862
NCI-H1915	0.506	0.511	0.531	0.511	0.506	0.485	0.535	0.534	0.992	0.93	1.03	1.03	0.659	0.604	0.698	0.585	0.491	0.41	0.461	0.376
BEN	0.457	0.46	0.445	0.491	0.811	0.787	0.887	1.02	0.912	0.711	0.942	0.799	0.289	0.254	0.324	0.296	0.513	0.536	0.506	0.456
NCI-H2347		0.398	0.407	0.443	0.388	0.368	0.402	0.45	1.12	0.717	1.05	0.906	0.396	0.393	0.419	0.477	0.447	0.442	0.551	0.662
H3255	0.353	0.322	0.343	0.323	0.632	0.49	0.522	0.553	0.954	0.708	1.01	0.75	0.563	0.52	0.557	0.589	0.613	0.65	0.747	0.623
NCI-H441	0.207	0.229	0.238	0.236	0.277	0.248	0.239	0.285	0.379	0.373	0.227	0.591	0.604	0.541	0.591	0.601	0.769	0.567	0.533	0.513
